Measured values reported in patent publication US4849436A, “1,4-dihydropyridines” (Nelson Research & Development Co., priority 1986, dated 1989).

Molecular target: T1, dihydropyridine (DHP) site (Oryctolagus cuniculus, UniProt P07293)
T1 construct: Washed rabbit skeletal muscle membranes (fraction 2-8X); from tissue; host or cells: rabbit skeletal muscle, washed membranes (fraction 2-8X)
Experiment: 3H-nitrendipine binding assay on washed rabbit skeletal muscle membranes
Conditions: read-out: Binding Assay KI (moles)
Protocol: The incubation tubes were rapidly chilled in ice and the contents filtered through Whatman GF/B filters on a Millipore manifold, and the filters washed with 2×10 ml ice-cold HEPES buffer. The filters were placed in scintillation counting vials with 8 ml of Cytoscint cocktail, disrupted mechanically by shaking for 30 minutes and counted.
Drugs which interact at the dihydropyridine (DHP) site will reduce this specific binding in a dosedependent manner. The assays for the compounds of this invention were made with logarithmically spaced concentrations, the data were plotted on a probitconcentration plot, and the IC50 read off. The KI of the compound was calculated by standard techniques.

T1 sequence (P07293 1-1664 limits assumed): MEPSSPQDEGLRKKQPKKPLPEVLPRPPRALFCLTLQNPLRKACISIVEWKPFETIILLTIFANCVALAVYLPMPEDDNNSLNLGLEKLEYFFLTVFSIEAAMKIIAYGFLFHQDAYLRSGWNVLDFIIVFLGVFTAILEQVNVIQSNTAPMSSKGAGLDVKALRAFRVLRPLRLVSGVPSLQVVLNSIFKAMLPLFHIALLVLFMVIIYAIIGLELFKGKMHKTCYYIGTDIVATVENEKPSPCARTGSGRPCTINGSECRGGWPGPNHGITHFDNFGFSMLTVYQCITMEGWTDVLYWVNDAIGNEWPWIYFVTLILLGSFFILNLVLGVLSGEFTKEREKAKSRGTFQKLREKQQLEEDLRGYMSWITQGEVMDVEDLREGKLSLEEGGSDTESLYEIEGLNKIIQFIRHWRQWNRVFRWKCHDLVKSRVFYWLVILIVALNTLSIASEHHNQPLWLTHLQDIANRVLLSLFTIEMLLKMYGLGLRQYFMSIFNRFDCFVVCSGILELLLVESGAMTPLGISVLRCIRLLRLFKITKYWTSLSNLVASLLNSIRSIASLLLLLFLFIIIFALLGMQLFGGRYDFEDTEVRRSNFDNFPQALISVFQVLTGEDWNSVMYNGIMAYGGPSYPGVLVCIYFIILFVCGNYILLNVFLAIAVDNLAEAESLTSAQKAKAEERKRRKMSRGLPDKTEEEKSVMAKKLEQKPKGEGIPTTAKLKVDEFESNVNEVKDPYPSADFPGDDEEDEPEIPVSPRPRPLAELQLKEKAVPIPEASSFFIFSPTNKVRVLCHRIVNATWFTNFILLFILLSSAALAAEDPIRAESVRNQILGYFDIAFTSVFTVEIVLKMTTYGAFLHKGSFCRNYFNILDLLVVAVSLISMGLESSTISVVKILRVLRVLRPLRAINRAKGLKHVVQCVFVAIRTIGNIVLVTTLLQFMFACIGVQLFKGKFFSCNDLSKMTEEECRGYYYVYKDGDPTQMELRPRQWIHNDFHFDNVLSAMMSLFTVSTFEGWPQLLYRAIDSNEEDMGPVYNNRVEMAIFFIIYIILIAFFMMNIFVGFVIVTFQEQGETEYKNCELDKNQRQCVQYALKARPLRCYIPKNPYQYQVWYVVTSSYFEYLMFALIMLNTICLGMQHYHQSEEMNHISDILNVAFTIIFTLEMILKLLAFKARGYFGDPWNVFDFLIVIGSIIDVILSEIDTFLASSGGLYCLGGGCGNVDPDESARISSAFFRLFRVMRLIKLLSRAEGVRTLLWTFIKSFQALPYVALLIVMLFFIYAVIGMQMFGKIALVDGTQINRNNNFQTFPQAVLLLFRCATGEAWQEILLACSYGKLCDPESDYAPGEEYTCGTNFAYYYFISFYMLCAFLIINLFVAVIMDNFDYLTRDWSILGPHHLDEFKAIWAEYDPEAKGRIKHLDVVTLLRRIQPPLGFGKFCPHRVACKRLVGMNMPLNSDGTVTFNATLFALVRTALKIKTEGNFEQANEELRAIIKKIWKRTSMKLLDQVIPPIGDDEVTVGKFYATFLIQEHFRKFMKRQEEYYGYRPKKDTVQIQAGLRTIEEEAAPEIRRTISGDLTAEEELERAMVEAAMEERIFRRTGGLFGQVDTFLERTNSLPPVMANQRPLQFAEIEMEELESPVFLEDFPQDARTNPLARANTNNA
T1 sequence (P13806 27-960 partner limits assumed): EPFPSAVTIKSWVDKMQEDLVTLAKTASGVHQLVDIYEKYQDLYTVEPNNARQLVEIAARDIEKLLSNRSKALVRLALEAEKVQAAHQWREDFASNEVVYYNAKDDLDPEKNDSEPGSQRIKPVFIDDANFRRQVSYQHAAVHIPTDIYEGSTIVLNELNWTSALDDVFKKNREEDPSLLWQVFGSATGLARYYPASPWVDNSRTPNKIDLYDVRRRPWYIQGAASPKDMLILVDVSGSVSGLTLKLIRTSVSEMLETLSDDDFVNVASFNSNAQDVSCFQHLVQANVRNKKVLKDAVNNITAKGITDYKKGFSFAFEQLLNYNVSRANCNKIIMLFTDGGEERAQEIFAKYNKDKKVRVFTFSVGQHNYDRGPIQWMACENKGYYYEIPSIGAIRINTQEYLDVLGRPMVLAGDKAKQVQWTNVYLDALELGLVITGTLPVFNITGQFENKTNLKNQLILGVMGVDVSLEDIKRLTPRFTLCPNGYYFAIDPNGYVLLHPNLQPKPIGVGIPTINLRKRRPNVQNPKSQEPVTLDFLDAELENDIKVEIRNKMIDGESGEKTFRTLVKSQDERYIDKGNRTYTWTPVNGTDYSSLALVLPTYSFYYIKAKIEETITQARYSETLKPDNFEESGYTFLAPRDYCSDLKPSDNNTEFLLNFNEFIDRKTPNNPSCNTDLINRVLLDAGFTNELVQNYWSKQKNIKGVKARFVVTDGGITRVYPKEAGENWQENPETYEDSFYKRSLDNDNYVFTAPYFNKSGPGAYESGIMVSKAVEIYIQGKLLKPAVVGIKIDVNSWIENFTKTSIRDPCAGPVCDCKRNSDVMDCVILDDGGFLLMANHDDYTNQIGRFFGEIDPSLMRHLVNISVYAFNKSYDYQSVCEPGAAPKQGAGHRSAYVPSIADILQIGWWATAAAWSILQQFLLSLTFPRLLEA
T1 sequence (P13806 961-1106 partner limits assumed): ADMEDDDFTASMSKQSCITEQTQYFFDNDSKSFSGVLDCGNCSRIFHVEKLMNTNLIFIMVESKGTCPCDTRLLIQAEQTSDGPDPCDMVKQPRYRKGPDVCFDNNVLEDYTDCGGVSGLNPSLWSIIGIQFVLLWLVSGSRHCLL
T1 sequence (P19517 whole entry partner): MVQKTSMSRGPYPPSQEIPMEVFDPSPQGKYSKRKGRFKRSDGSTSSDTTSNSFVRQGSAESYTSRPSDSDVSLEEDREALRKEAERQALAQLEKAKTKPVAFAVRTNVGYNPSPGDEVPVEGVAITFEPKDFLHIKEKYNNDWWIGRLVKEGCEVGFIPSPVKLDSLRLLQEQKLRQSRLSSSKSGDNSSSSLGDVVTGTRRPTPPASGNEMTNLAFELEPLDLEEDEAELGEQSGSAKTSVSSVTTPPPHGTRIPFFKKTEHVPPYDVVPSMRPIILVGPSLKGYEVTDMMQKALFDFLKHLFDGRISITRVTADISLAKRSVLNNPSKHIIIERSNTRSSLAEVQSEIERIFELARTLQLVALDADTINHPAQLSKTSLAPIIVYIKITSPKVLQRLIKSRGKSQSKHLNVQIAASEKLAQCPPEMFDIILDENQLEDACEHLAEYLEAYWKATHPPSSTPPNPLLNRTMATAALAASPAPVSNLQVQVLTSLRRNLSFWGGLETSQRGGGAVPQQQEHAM
T1 sequence (P19518 whole entry partner): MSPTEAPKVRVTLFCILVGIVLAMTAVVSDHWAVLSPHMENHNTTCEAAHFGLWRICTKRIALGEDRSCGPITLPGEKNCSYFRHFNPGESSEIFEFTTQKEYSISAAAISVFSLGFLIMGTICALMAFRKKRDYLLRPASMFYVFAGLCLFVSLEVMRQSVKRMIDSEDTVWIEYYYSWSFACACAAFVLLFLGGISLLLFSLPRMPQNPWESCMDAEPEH

Row | Compound | Ki [nM]
1 | CCOC(=O)C1=C(CCN2C(=O)c3ccccc3C2=O)NC(C)=C(C(=O)OC)C1c1cccc([N+](=O)[O-])c1 (stereo not shown) [12(e), 1,4-Dihydro-6-methyl-4(3-nitrophenyl)2-(2-phthalimidoethyl)-3,5-pyridine dicarboxylic acid-3-ethyl-5-methyl ester] | 105
2 | COC(=O)C1=C(C)NC(C)=C(C(=O)OCCN=C=S)C1c1cccc([N+](=O)[O-])c1 (stereo not shown) [Example 7, 1,4-Dihydro-2,6-dimethyl-4-(3-nitrophenyl)-3,5-pyridine dicarboxylic acid, 3-(2isothiocyanatoethyl)-5-methyl ester] | 1.3
3 | COC(=O)C1=C(C)NC(C)=C(C(=O)OCCCN=C=S)C1c1cccc([N+](=O)[O-])c1 (stereo not shown) [Example 8, 1,4-Dihydro-2.6-dimethyl-4-(3-nitrophenyl)-3,5-pyridine dicarboxylic acid, 3-(3-isothiocyanatopropyl)-5-methyl ester] | 1.6
4 | COC(=O)C1=C(C)NC(C)=C(C(=O)OCCCCCCN=C=S)C1c1cccc([N+](=O)[O-])c1 (stereo not shown) [Example 9, 1,4-Dihydro-2,6-dimethyl-4-(3-nitrophenyl)-3,5-pyridine dicarboxylic acid, 3-(6-isothiocyanatohexyl)-5-methyl ester] | 1.9

Next, values leading:

Row | Ki [nM] | Compound
5 | 1250 | COC(=O)C1=C(C)NC(C)=C(C(=O)OCCN)C1c1cccc(C)c1 (stereo not shown) [Example 2, 1,4-Dihydro-2,6-dimethyl-4-(3-methylphenyl)-3,5-pyridine dicarboxylic acid, 3-(2-aminoethyl)-5-methyl ester]
6 | > 100 | COC(=O)C1=C(C)NC(C)=C(C(=O)OCCN)C1c1cccc([N+](=O)[O-])c1 (stereo not shown) [Example 3, 1,4-Dihydro-2,6-dimethyl-4-(3-nitrophenyl)-3,5-pyridine dicarboxylic acid, 3-(2-aminoethyl)-5-methyl ester]
7 | 1120 | CCOC(=O)C1=C(CCN2C(=O)c3ccccc3C2=O)NC(CCN2C(=O)c3ccccc3C2=O)=C(C(=O)OCC)C1c1cccc([N+](=O)[O-])c1 [Example 13, 1,4-Dihydro-4(3-nitrophenyl)-2,6-(2-phthalimidoethyl)-3,5-pyridine dicarboxylic acid, ethyl ester]
